The text below walks through data of US8412459B2, “Method for determining the allergic potential of a compound” (Vlaamse Instelling Voor Technologisch Onderzoek (VITO), priority 2006, dated 2013).

The subject of data set [1] is CD34-DCs. The experiment in a line: RT-PCR gene expression in CD34-DCs; classification model (lda + quadratic discriminant) on NINJ, PBEF1, CCR7, CREM, leave-one-compound-out cross validation. Particulars: LFC of NINJ, exposure 6, 12 and 24 h at concentration of EC20, on average 3 individuals, test compound left out of training.
Method: Expression of every gene was measured after exposure to each of the 9 different compounds (control solvent). For each compound on average 3 different unrelated individuals were used for exposure. On average sample from 3 different individuals were used per compound. Each exposure consisted of 3 exposure times (6, 12 and 24 hours) and three different concentrations were used for each exposure experiment.
To quantify the separation of the two groups one can use e.g. a linear discriminant analysis (lda). This method determines the direction(s) in space (in our case one direction in a 3D space) in which the discrimination between the groups is maximal. […] Mathematically, this projection is a linear combination of the LFC at 6, 12 and 24 hours; this linear combination of LFC's will be called the feature value. On this feature data per gene an F-test can be performed to assess the significance (p-value) of the separation.
One can now set a threshold and only retain those genes with a p-value below it.
To this end the lda was again used to find the two dimensional subspace in which the separation between the two groups is optimal. The variables on the two axes of this space are now a linear combination of the four feature values of the four genes. We will call the x- and y-variable respectively feature value 1 and 2. Note that these feature values are trained by the data.
For this quadratic model, the decision boundary separating the two groups is a conic section, in this case an ellipse.
First one chooses one of the 9 compounds and removes the corresponding measurements from the dataset.
Next one repeats the lda optimization and the construction of a quadratic discriminant model as described in the previous step.
Next the data of the removed compound are fed into the classification model and used to predict the class to which the compound belongs.
The conditions of data set [2]: a priori known, from literature / in vivo tests; cited from earlier work.

In the case of `C[S+](C)[O-]` [DMSO, dimethylsulfoxide], in data set [1], the “class predicted by the classification model in cross validation (sensitizer / non-sensitizer)” value is “non-sensitizers”. Still for that read-out and setting: then `CCC[CH2][Sn]([Cl])([CH2]CCC)[CH2]CCC` [TBT, Tributyltin chloride], with “non-sensitizers”. As to `O=[N+]([O-])c1ccc(Cl)c([N+](=O)[O-])c1` [DNCB, 1-chloro-2,4-dinitrobenzene], the “known sensitizing classification / strength” value in data set [2] was “strong sensitizer”. tritonX-100: in data set [1], the “class predicted by the classification model in cross validation (sensitizer / non-sensitizer)” value is listed as “non-sensitizers”. For the molecule `C=CCc1ccc(O)c(OC)c1` [Eugenol, 2-Methoxy-4-(2-propenyl)phenol], the “known sensitizing classification / strength” value in data set [2] is reported as “weak sensitizing capacity”.
